{
  "source": "ChEMBL document CHEMBL1201861",
  "about": "“Genomics of Drug Sensitity in Cancer screening data, Wellcome Trust Sanger Institute”",
  "assay_in_all_cases": "cells",
  "key": {"[1]": {"tested_on": "LC-2-ad", "assay_type": "functional, cell-based, Homo sapiens", "conditions": "Homo sapiens, LC-2-ad", "description": "SANGER: Inhibition of human LC-2-ad cell growth in a cell viability assay."}, "[2]": {"tested_on": "KE-37", "assay_type": "functional, cell-based, Homo sapiens", "conditions": "Homo sapiens, KE-37", "description": "SANGER: Inhibition of human KE-37 cell growth in a cell viability assay."}, "[3]": {"tested_on": "KINGS-1", "assay_type": "functional, cell-based, Homo sapiens", "conditions": "Homo sapiens, KINGS-1", "description": "SANGER: Inhibition of human KINGS-1 cell growth in a cell viability assay."}, "[4]": {"tested_on": "SW 954", "assay_type": "functional, cell-based, Homo sapiens", "conditions": "Homo sapiens, SW 954", "description": "SANGER: Inhibition of human SW954 cell growth in a cell viability assay."}, "[5]": {"tested_on": "MZ7-mel", "assay_type": "functional, cell-based, Homo sapiens", "conditions": "Homo sapiens, MZ7-mel", "description": "SANGER: Inhibition of human MZ7-mel cell growth in a cell viability assay."}, "[6]": {"tested_on": "A498", "assay_type": "functional, cell-based, Homo sapiens", "conditions": "Homo sapiens, A498", "description": "SANGER: Inhibition of human A498 cell growth in a cell viability assay."}, "[7]": {"tested_on": "SH-4", "assay_type": "functional, cell-based, Homo sapiens", "conditions": "Homo sapiens, SH-4", "description": "SANGER: Inhibition of human SH-4 cell growth in a cell viability assay."}, "[8]": {"tested_on": "HEL", "assay_type": "functional, cell-based, Homo sapiens", "conditions": "Homo sapiens, HEL", "description": "SANGER: Inhibition of human HEL cell growth in a cell viability assay."}, "[9]": {"tested_on": "GT3TKB", "assay_type": "functional, cell-based, Homo sapiens", "conditions": "Homo sapiens, GT3TKB", "description": "SANGER: Inhibition of human GT3TKB cell growth in a cell viability assay."}, "[10]": {"tested_on": "MZ2-MEL", "assay_type": "functional, cell-based, Homo sapiens", "conditions": "Homo sapiens, MZ2-MEL", "description": "SANGER: Inhibition of human MZ2-MEL cell growth in a cell viability assay."}, "[11]": {"tested_on": "HCC 2998", "assay_type": "functional, cell-based, Homo sapiens", "conditions": "Homo sapiens, HCC 2998", "description": "SANGER: Inhibition of human HCC2998 cell growth in a cell viability assay."}, "[12]": {"tested_on": "KM-H2", "assay_type": "functional, cell-based, Homo sapiens", "conditions": "Homo sapiens, KM-H2", "description": "SANGER: Inhibition of human KM-H2 cell growth in a cell viability assay."}, "[13]": {"tested_on": "NEC8", "assay_type": "functional, cell-based, Homo sapiens", "conditions": "Homo sapiens, NEC8", "description": "SANGER: Inhibition of human NEC8 cell growth in a cell viability assay."}, "[14]": {"tested_on": "D-502MG", "assay_type": "functional, cell-based, Homo sapiens", "conditions": "Homo sapiens, D-502MG", "description": "SANGER: Inhibition of human D-502MG cell growth in a cell viability assay."}, "[15]": {"tested_on": "SW684", "assay_type": "functional, cell-based, Homo sapiens", "conditions": "Homo sapiens, SW684", "description": "SANGER: Inhibition of human SW684 cell growth in a cell viability assay."}, "[16]": {"tested_on": "EM-2", "assay_type": "functional, cell-based, Homo sapiens", "conditions": "Homo sapiens, EM-2", "description": "SANGER: Inhibition of human EM-2 cell growth in a cell viability assay."}, "[17]": {"tested_on": "ACN", "assay_type": "functional, cell-based, Homo sapiens", "conditions": "Homo sapiens, ACN", "description": "SANGER: Inhibition of human ACN cell growth in a cell viability assay."}, "[18]": {"tested_on": "SF-268", "assay_type": "functional, cell-based, Homo sapiens", "conditions": "Homo sapiens, SF-268", "description": "SANGER: Inhibition of human SF268 cell growth in a cell viability assay."}, "[19]": {"tested_on": "KMOE-2", "assay_type": "functional, cell-based, Homo sapiens", "conditions": "Homo sapiens, KMOE-2", "description": "SANGER: Inhibition of human KMOE-2 cell growth in a cell viability assay."}, "[20]": {"tested_on": "TK-10", "assay_type": "functional, cell-based, Homo sapiens", "conditions": "Homo sapiens, TK-10", "description": "SANGER: Inhibition of human TK10 cell growth in a cell viability assay."}, "[21]": {"tested_on": "SHP77", "assay_type": "functional, cell-based, Homo sapiens, SHP-77", "conditions": "Homo sapiens, SHP77", "description": "SANGER: Inhibition of human SHP-77 cell growth in a cell viability assay."}, "[22]": {"tested_on": "SK-MEL-2", "assay_type": "functional, cell-based, Homo sapiens", "conditions": "Homo sapiens, SK-MEL-2", "description": "SANGER: Inhibition of human SK-MEL-2 cell growth in a cell viability assay."}, "[23]": {"tested_on": "MPP-89", "assay_type": "functional, cell-based, Homo sapiens", "conditions": "Homo sapiens, MPP-89", "description": "SANGER: Inhibition of human MPP-89 cell growth in a cell viability assay."}, "[24]": {"tested_on": "BB30-HNC", "assay_type": "functional, cell-based, Homo sapiens", "conditions": "Homo sapiens, BB30-HNC", "description": "SANGER: Inhibition of human BB30-HNC cell growth in a cell viability assay."}, "[25]": {"tested_on": "RPMI-8226", "assay_type": "functional, cell-based, Homo sapiens", "conditions": "Homo sapiens, RPMI-8226", "description": "SANGER: Inhibition of human RPMI-8226 cell growth in a cell viability assay."}, "[26]": {"tested_on": "PSN1", "assay_type": "functional, cell-based, Homo sapiens", "conditions": "Homo sapiens, PSN1", "description": "SANGER: Inhibition of human PSN1 cell growth in a cell viability assay."}, "[27]": {"tested_on": "GAK", "assay_type": "functional, cell-based, Homo sapiens", "conditions": "Homo sapiens, GAK", "description": "SANGER: Inhibition of human GAK cell growth in a cell viability assay."}, "[28]": {"tested_on": "ES8", "assay_type": "functional, cell-based, Homo sapiens", "conditions": "Homo sapiens, ES8", "description": "SANGER: Inhibition of human ES8 cell growth in a cell viability assay."}, "[29]": {"tested_on": "LB996-RCC", "assay_type": "functional, cell-based, Homo sapiens", "conditions": "Homo sapiens, LB996-RCC", "description": "SANGER: Inhibition of human LB996-RCC cell growth in a cell viability assay."}, "[30]": {"tested_on": "BT-474", "assay_type": "functional, cell-based, Homo sapiens", "conditions": "Homo sapiens, BT-474", "description": "SANGER: Inhibition of human BT-474 cell growth in a cell viability assay."}, "[31]": {"tested_on": "NCI-H226", "assay_type": "functional, cell-based, Homo sapiens", "conditions": "Homo sapiens, NCI-H226", "description": "SANGER: Inhibition of human NCI-H226 cell growth in a cell viability assay."}, "[32]": {"tested_on": "ALL-PO", "assay_type": "functional, cell-based, Homo sapiens", "conditions": "Homo sapiens, ALL-PO", "description": "SANGER: Inhibition of human ALL-PO cell growth in a cell viability assay."}, "[33]": {"tested_on": "U-87 MG", "assay_type": "functional, cell-based, Homo sapiens, U-87MG ATCC", "conditions": "Homo sapiens, U-87 MG", "description": "SANGER: Inhibition of human U-87-MG cell growth in a cell viability assay."}, "[34]": {"tested_on": "KNS-81-FD", "assay_type": "functional, cell-based, Homo sapiens", "conditions": "Homo sapiens, KNS-81-FD", "description": "SANGER: Inhibition of human KNS-81-FD cell growth in a cell viability assay."}, "[35]": {"tested_on": "ES1", "assay_type": "functional, cell-based, Homo sapiens", "conditions": "Homo sapiens, ES1", "description": "SANGER: Inhibition of human ES1 cell growth in a cell viability assay."}, "[36]": {"tested_on": "no-11", "assay_type": "functional, cell-based, Homo sapiens", "conditions": "Homo sapiens", "description": "SANGER: Inhibition of human no-11 cell growth in a cell viability assay."}, "[37]": {"tested_on": "OCUB-M", "assay_type": "functional, cell-based, Homo sapiens", "conditions": "Homo sapiens, OCUB-M", "description": "SANGER: Inhibition of human OCUB-M cell growth in a cell viability assay."}, "[38]": {"tested_on": "EW-3", "assay_type": "functional, cell-based, Homo sapiens", "conditions": "Homo sapiens, EW-3", "description": "SANGER: Inhibition of human EW-3 cell growth in a cell viability assay."}, "[39]": {"tested_on": "COLO-668", "assay_type": "functional, cell-based, Homo sapiens", "conditions": "Homo sapiens, COLO-668", "description": "SANGER: Inhibition of human COLO-668 cell growth in a cell viability assay."}, "[40]": {"tested_on": "EW-16", "assay_type": "functional, cell-based, Homo sapiens", "conditions": "Homo sapiens, EW-16", "description": "SANGER: Inhibition of human EW-16 cell growth in a cell viability assay."}, "[41]": {"tested_on": "CGTH-W-1", "assay_type": "functional, cell-based, Homo sapiens", "conditions": "Homo sapiens, CGTH-W-1", "description": "SANGER: Inhibition of human CGTH-W-1 cell growth in a cell viability assay."}, "[42]": {"tested_on": "NCI-H209", "assay_type": "functional, cell-based, Homo sapiens", "conditions": "Homo sapiens, NCI-H209", "description": "SANGER: Inhibition of human NCI-H209 cell growth in a cell viability assay."}, "[43]": {"tested_on": "IST-MEL1", "assay_type": "functional, cell-based, Homo sapiens", "conditions": "Homo sapiens, IST-MEL1", "description": "SANGER: Inhibition of human IST-MEL1 cell growth in a cell viability assay."}, "[44]": {"tested_on": "NB10", "assay_type": "functional, cell-based, Homo sapiens", "conditions": "Homo sapiens, NB10", "description": "SANGER: Inhibition of human NB10 cell growth in a cell viability assay."}, "[45]": {"tested_on": "MFH-ino", "assay_type": "functional, cell-based, Homo sapiens", "conditions": "Homo sapiens, MFH-ino", "description": "SANGER: Inhibition of human MFH-ino cell growth in a cell viability assay."}, "[46]": {"tested_on": "LS-411N", "assay_type": "functional, cell-based, Homo sapiens", "conditions": "Homo sapiens, LS-411N"}, "[47]": {"tested_on": "HOP-62", "assay_type": "functional, cell-based, Homo sapiens", "conditions": "Homo sapiens, HOP-62", "description": "SANGER: Inhibition of human HOP-62 cell growth in a cell viability assay."}},
  "data": [
    {"compound": "COc1cc(N2CCN(C)CC2)ccc1Nc1ncc2c(n1)N(C)c1ccccc1C(=O)N2C", "values": [
      {"measurement": "IC50", "setting": "[1]", "result": "> 8", "unit": "µM"},
      {"measurement": "IC50", "setting": "[2]", "result": "> 8", "unit": "µM"},
      {"measurement": "IC50", "setting": "[3]", "result": "> 8", "unit": "µM"},
      {"measurement": "IC50", "setting": "[4]", "result": 4.85, "unit": "µM"},
      {"measurement": "IC50", "setting": "[5]", "result": 7.54, "unit": "µM"},
      {"measurement": "IC50", "setting": "[6]", "result": "> 8", "unit": "µM"},
      {"measurement": "IC50", "setting": "[7]", "result": 1990, "unit": "nM"},
      {"measurement": "IC50", "setting": "[8]", "result": 5.95, "unit": "µM"},
      {"measurement": "IC50", "setting": "[9]", "result": "> 8", "unit": "µM"},
      {"measurement": "IC50", "setting": "[10]", "result": "> 8", "unit": "µM"},
      {"measurement": "IC50", "setting": "[11]", "result": "> 8", "unit": "µM"},
      {"measurement": "IC50", "setting": "[12]", "result": "> 8", "unit": "µM"},
      {"measurement": "IC50", "setting": "[13]", "result": "> 8", "unit": "µM"},
      {"measurement": "IC50", "setting": "[14]", "result": "> 8", "unit": "µM"},
      {"measurement": "IC50", "setting": "[15]", "result": "> 8", "unit": "µM"},
      {"measurement": "IC50", "setting": "[16]", "result": "> 8", "unit": "µM"},
      {"measurement": "IC50", "setting": "[17]", "result": "> 8", "unit": "µM"},
      {"measurement": "IC50", "setting": "[18]", "result": 7.55, "unit": "µM"},
      {"measurement": "IC50", "setting": "[19]", "result": "> 8", "unit": "µM"},
      {"measurement": "IC50", "setting": "[20]", "result": "> 8", "unit": "µM"},
      {"measurement": "IC50", "setting": "[21]", "result": "> 8", "unit": "µM"},
      {"measurement": "IC50", "setting": "[22]", "result": "> 8", "unit": "µM"},
      {"measurement": "IC50", "setting": "[23]", "result": 4.5, "unit": "µM"},
      {"measurement": "IC50", "setting": "[24]", "result": 4.51, "unit": "µM"},
      {"measurement": "IC50", "setting": "[25]", "result": "> 8", "unit": "µM"},
      {"measurement": "IC50", "setting": "[26]", "result": "> 8", "unit": "µM"},
      {"measurement": "IC50", "setting": "[27]", "result": "> 8", "unit": "µM"},
      {"measurement": "IC50", "setting": "[28]", "result": 4.16, "unit": "µM"},
      {"measurement": "IC50", "setting": "[29]", "result": 5.37, "unit": "µM"},
      {"measurement": "IC50", "setting": "[30]", "result": "> 8", "unit": "µM"},
      {"measurement": "IC50", "setting": "[31]", "result": "> 8", "unit": "µM"},
      {"measurement": "IC50", "setting": "[32]", "result": 5.74, "unit": "µM"},
      {"measurement": "IC50", "setting": "[33]", "result": "> 8", "unit": "µM"},
      {"measurement": "IC50", "setting": "[34]", "result": "> 8", "unit": "µM"},
      {"measurement": "IC50", "setting": "[35]", "result": "> 8", "unit": "µM"},
      {"measurement": "IC50", "setting": "[36]", "result": "> 8", "unit": "µM"},
      {"measurement": "IC50", "setting": "[37]", "result": "> 8", "unit": "µM"},
      {"measurement": "IC50", "setting": "[38]", "result": "> 8", "unit": "µM"},
      {"measurement": "IC50", "setting": "[39]", "result": "> 8", "unit": "µM"},
      {"measurement": "IC50", "setting": "[40]", "result": "> 8", "unit": "µM"},
      {"measurement": "IC50", "setting": "[41]", "result": "> 8", "unit": "µM"},
      {"measurement": "IC50", "setting": "[42]", "result": "> 8", "unit": "µM"},
      {"measurement": "IC50", "setting": "[43]", "result": "> 8", "unit": "µM"},
      {"measurement": "IC50", "setting": "[44]", "result": "> 8", "unit": "µM"},
      {"measurement": "IC50", "setting": "[45]", "result": "> 8", "unit": "µM"},
      {"measurement": "IC50", "setting": "[46]", "result": 7.05, "unit": "µM"},
      {"measurement": "IC50", "setting": "[47]", "result": 6.6, "unit": "µM"}
    ]}
  ]
}
